Source: PubChem BioAssay (NCI)
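Dose response: 5 concentrations. Exposure: 48 h. Format: 96-well plates. Endpoint: linear interpolation; highest concentration if not reached. Abbreviation: GI50, concentration required for 50% inhibition of growth. TGI marks complete inhibition of growth.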

Legend:
Experiment in all cases: NCI-60 cell line screen, 48 h
M14 melanoma = tested on: M14 melanoma
OVCAR-3 ovarian = tested on: OVCAR-3 ovarian
SNB-75 CNS = tested on: SNB-75 CNS
K-562 leukemia = tested on: K-562 leukemia
U251 CNS = tested on: U251 CNS
SN12C renal = tested on: SN12C renal
OVCAR-4 ovarian = tested on: OVCAR-4 ovarian
NCI-H226 lung = tested on: NCI-H226 lung
HCT-116 colon = tested on: HCT-116 colon
UO-31 renal = tested on: UO-31 renal
RPMI-8226 leukemia = tested on: RPMI-8226 leukemia
SK-MEL-2 melanoma = tested on: SK-MEL-2 melanoma
KM20L2 colon = tested on: KM20L2 colon
OVCAR-5 ovarian = tested on: OVCAR-5 ovarian
MALME-3M melanoma = tested on: MALME-3M melanoma
UACC-257 melanoma = tested on: UACC-257 melanoma
SNB-19 CNS = tested on: SNB-19 CNS
NCI-H522 lung = tested on: NCI-H522 lung
OVCAR-8 ovarian = tested on: OVCAR-8 ovarian
ACHN renal = tested on: ACHN renal
LXFL 529 NSCLC = tested on: LXFL 529 NSCLC
HOP-62 NSCLC = tested on: HOP-62 NSCLC
SK-MEL-5 melanoma = tested on: SK-MEL-5 melanoma
UACC-62 melanoma = tested on: UACC-62 melanoma
A498 renal = tested on: A498 renal
HCC-2998 colon = tested on: HCC-2998 colon
HCT-15 colon = tested on: HCT-15 colon
SF-295 CNS = tested on: SF-295 CNS
KM12 colon = tested on: KM12 colon
NCI-H460 lung = tested on: NCI-H460 lung
786-0 renal = tested on: 786-0 renal
LOX IMVI melanoma = tested on: LOX IMVI melanoma
HT29 colon = tested on: HT29 colon
EKVX NSCLC = tested on: EKVX NSCLC
CAKI-1 renal = tested on: CAKI-1 renal
IGROV1 ovarian = tested on: IGROV1 ovarian
SF-268 CNS = tested on: SF-268 CNS
MOLT-4 leukemia = tested on: MOLT-4 leukemia
SW-620 colon = tested on: SW-620 colon
M19-MEL melanoma = tested on: M19-MEL melanoma
SK-OV-3 ovarian = tested on: SK-OV-3 ovarian
A549 NSCLC = tested on: A549 NSCLC
SF-539 CNS = tested on: SF-539 CNS
SK-MEL-28 melanoma = tested on: SK-MEL-28 melanoma
HL-60(TB) leukemia = tested on: HL-60(TB) leukemia
COLO 205 colon = tested on: COLO 205 colon
CCRF-CEM leukemia = tested on: CCRF-CEM leukemia
DMS 273 small cell lung = tested on: DMS 273 small cell lung
SR leukemia = tested on: SR leukemia
NCI-H23 lung = tested on: NCI-H23 lung
XF 498 CNS = tested on: XF 498 CNS
DMS 114 small cell lung = tested on: DMS 114 small cell lung
DLD-1 colon = tested on: DLD-1 colon
TK-10 renal = tested on: TK-10 renal
HOP-92 NSCLC = tested on: HOP-92 NSCLC

CC(=O)[CH-]C(=O)c1ccccc1.CC(=O)[CH-]C(=O)c1ccccc1.O=C([O-])C[O-].O=C([O-])C[O-].[Ti+4]
GI50 (M14 melanoma): 34.7 µM | TGI (M14 melanoma): > 100 µM | GI50 (OVCAR-3 ovarian): 42.7 µM | TGI (OVCAR-3 ovarian): > 100 µM | GI50 (SNB-75 CNS): 18.6 µM | TGI (SNB-75 CNS): 56.7 µM | GI50 (K-562 leukemia): 71.4 µM | TGI (K-562 leukemia): > 100 µM | GI50 (U251 CNS): 32 µM | TGI (U251 CNS): > 100 µM | GI50 (SN12C renal): 60.5 µM | TGI (SN12C renal): > 100 µM | GI50 (OVCAR-4 ovarian): 41 µM | TGI (OVCAR-4 ovarian): > 100 µM | GI50 (NCI-H226 lung): 19.4 µM | TGI (NCI-H226 lung): 73 µM | GI50 (HCT-116 colon): 21.8 µM | TGI (HCT-116 colon): > 100 µM | GI50 (UO-31 renal): 71.4 µM | TGI (UO-31 renal): > 100 µM | GI50 (RPMI-8226 leukemia): 49.9 µM | TGI (RPMI-8226 leukemia): > 100 µM | GI50 (SK-MEL-2 melanoma): 30.5 µM | TGI (SK-MEL-2 melanoma): > 100 µM | GI50 (KM20L2 colon): 43.8 µM | TGI (KM20L2 colon): > 100 µM | GI50 (OVCAR-5 ovarian): > 100 µM | TGI (OVCAR-5 ovarian): > 100 µM | GI50 (MALME-3M melanoma): 34.3 µM | TGI (MALME-3M melanoma): > 100 µM | GI50 (UACC-257 melanoma): 43.1 µM | TGI (UACC-257 melanoma): > 100 µM | GI50 (SNB-19 CNS): 30.8 µM | TGI (SNB-19 CNS): > 100 µM | GI50 (NCI-H522 lung): 17.5 µM | TGI (NCI-H522 lung): 70.5 µM | GI50 (OVCAR-8 ovarian): 77 µM | TGI (OVCAR-8 ovarian): > 100 µM | GI50 (ACHN renal): 44.9 µM | TGI (ACHN renal): > 100 µM | GI50 (LXFL 529 NSCLC): 33.5 µM | TGI (LXFL 529 NSCLC): > 100 µM | GI50 (HOP-62 NSCLC): 58.7 µM | TGI (HOP-62 NSCLC): > 100 µM | GI50 (SK-MEL-5 melanoma): 31.9 µM | TGI (SK-MEL-5 melanoma): > 100 µM | GI50 (UACC-62 melanoma): > 100 µM | TGI (UACC-62 melanoma): > 100 µM | GI50 (A498 renal): > 100 µM | TGI (A498 renal): > 100 µM | GI50 (HCC-2998 colon): 40.3 µM | TGI (HCC-2998 colon): > 100 µM | GI50 (HCT-15 colon): 30.9 µM | TGI (HCT-15 colon): > 100 µM | GI50 (SF-295 CNS): 50.7 µM | TGI (SF-295 CNS): > 100 µM | GI50 (KM12 colon): 21.7 µM | TGI (KM12 colon): 69.2 µM | GI50 (NCI-H460 lung): 28.4 µM | TGI (NCI-H460 lung): > 100 µM | GI50 (786-0 renal): 71.7 µM | TGI (786-0 renal): > 100 µM | GI50 (LOX IMVI melanoma): 41.2 µM | TGI (LOX IMVI melanoma): > 100 µM | GI50 (HT29 colon): 27.7 µM | TGI (HT29 colon): 91.7 µM | GI50 (EKVX NSCLC): 96.7 µM | TGI (EKVX NSCLC): > 100 µM | GI50 (CAKI-1 renal): 54.5 µM | TGI (CAKI-1 renal): > 100 µM | GI50 (IGROV1 ovarian): > 100 µM | TGI (IGROV1 ovarian): > 100 µM | GI50 (SF-268 CNS): > 100 µM | TGI (SF-268 CNS): > 100 µM | GI50 (MOLT-4 leukemia): 27.7 µM | TGI (MOLT-4 leukemia): > 100 µM | GI50 (SW-620 colon): 53.8 µM | TGI (SW-620 colon): > 100 µM | TGI (M19-MEL melanoma): > 100 µM | GI50 (SK-OV-3 ovarian): 35.8 µM | TGI (SK-OV-3 ovarian): > 100 µM | GI50 (A549 NSCLC): 18.2 µM | TGI (A549 NSCLC): > 100 µM | GI50 (SF-539 CNS): 41.8 µM | TGI (SF-539 CNS): > 100 µM | GI50 (SK-MEL-28 melanoma): 68.1 µM | TGI (SK-MEL-28 melanoma): > 100 µM | GI50 (HL-60(TB) leukemia): 40 µM | TGI (HL-60(TB) leukemia): > 100 µM

CC(C#N)c1cn(S(=O)(=O)c2ccccc2)c2ccccc12 (centres undefined)
TGI (M14 melanoma): > 100 µM | TGI (OVCAR-3 ovarian): > 100 µM | TGI (SNB-75 CNS): 38.2 µM | TGI (K-562 leukemia): > 100 µM | TGI (U251 CNS): > 100 µM | TGI (OVCAR-4 ovarian): > 100 µM | TGI (NCI-H226 lung): > 100 µM | TGI (HCT-116 colon): > 100 µM | TGI (UO-31 renal): 62.4 µM | TGI (RPMI-8226 leukemia): > 100 µM | TGI (SK-MEL-2 melanoma): > 100 µM | TGI (KM20L2 colon): > 100 µM | TGI (OVCAR-5 ovarian): > 100 µM | TGI (COLO 205 colon): > 100 µM | TGI (CCRF-CEM leukemia): > 100 µM | TGI (DMS 273 small cell lung): > 100 µM | TGI (MALME-3M melanoma): > 100 µM | TGI (UACC-257 melanoma): > 100 µM | TGI (SNB-19 CNS): > 100 µM | TGI (NCI-H522 lung): 94.9 µM | TGI (OVCAR-8 ovarian): > 100 µM | TGI (ACHN renal): > 100 µM | TGI (LXFL 529 NSCLC): > 100 µM | TGI (HOP-62 NSCLC): > 100 µM | TGI (SK-MEL-5 melanoma): 36.9 µM | TGI (SR leukemia): > 100 µM | TGI (UACC-62 melanoma): > 100 µM | TGI (NCI-H23 lung): > 100 µM | TGI (XF 498 CNS): > 100 µM | TGI (HCC-2998 colon): > 100 µM | TGI (DMS 114 small cell lung): > 100 µM | TGI (HCT-15 colon): > 100 µM | TGI (DLD-1 colon): > 100 µM | TGI (SF-295 CNS): > 100 µM | TGI (TK-10 renal): > 100 µM | TGI (KM12 colon): > 100 µM | TGI (NCI-H460 lung): > 100 µM | TGI (786-0 renal): > 100 µM | TGI (HT29 colon): > 100 µM | TGI (CAKI-1 renal): > 100 µM | TGI (IGROV1 ovarian): > 100 µM | TGI (SF-268 CNS): > 100 µM | TGI (MOLT-4 leukemia): > 100 µM | TGI (SW-620 colon): > 100 µM | TGI (M19-MEL melanoma): > 100 µM | TGI (HOP-92 NSCLC): 53.8 µM | TGI (A549 NSCLC): > 100 µM | TGI (SF-539 CNS): > 100 µM | TGI (SK-MEL-28 melanoma): > 100 µM | TGI (HL-60(TB) leukemia): 88.1 µM
